In PubChem BioAssay (NCI):
Where “and” joins values, the source holds several entries; their conditions need not be identical. Equal entries are not always repeated.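 How tested: cells in 96-well plates exposed to compound for 48 hours at five concentrations. At the GI50, growth is halved. TGI marks complete inhibition of growth.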

Assays:
Assay in all cases: NCI-60 cell line screen, 48 h
HCT-15 colon = system: HCT-15 colon
HOP-92 NSCLC = system: HOP-92 NSCLC
K-562 leukemia = system: K-562 leukemia
M14 melanoma = system: M14 melanoma
MCF7 breast = system: MCF7 breast
MDA-MB-231 breast = system: MDA-MB-231 breast
NCI-H522 lung = system: NCI-H522 lung
OVCAR-8 ovarian = system: OVCAR-8 ovarian
SNB-19 CNS = system: SNB-19 CNS
T-47D breast = system: T-47D breast

SMILES | GI50 (HCT-15 colon) | TGI (HCT-15 colon) | GI50 (HOP-92 NSCLC) | TGI (HOP-92 NSCLC) | GI50 (K-562 leukemia) | TGI (K-562 leukemia) | GI50 (M14 melanoma) | TGI (M14 melanoma) | GI50 (MCF7 breast) | TGI (MCF7 breast) | GI50 (MDA-MB-231 breast) | TGI (MDA-MB-231 breast) | GI50 (NCI-H522 lung) | TGI (NCI-H522 lung) | GI50 (OVCAR-8 ovarian) | TGI (OVCAR-8 ovarian) | GI50 (SNB-19 CNS) | TGI (SNB-19 CNS) | GI50 (T-47D breast) | TGI (T-47D breast)
COC(=O)[C@]12CC[C@@H](C)[C@H](C)[C@@H]1C1=CC[C@@H]3[C@@]4(C)C=C(O)C(=O)C(C)=C4CC[C@@]3(C)[C@]1(C)CC2 | 11.9 µM | 27.6 µM | 11.6 µM | 26.2 µM | 14.3 µM | 39.2 µM | 11 µM | 29 µM | 10.8 µM | 26.9 µM | 13 µM | 30.2 µM | 3.92 µM | 14.7 µM | 16.9 µM | 39.4 µM | 18.7 µM | 40.9 µM | 5.86 µM | 30.8 µM
COc1ccc(Nc2c[nH]c(=O)[nH]c2=O)cc1 | – | > 100 µM | – | > 100 µM | – | > 100 µM | – | > 100 µM | – | > 100 µM | – | > 100 µM | – | > 100 µM | – | > 100 µM | – | > 100 µM | – | > 100 µM
O=C(CC(=O)c1ccccc1NC1=Cc2ccccc2C(=O)C1=O)C(=O)NC1=C(Cl)C(=O)c2ccccc2C1=O | – | 6.03 µM | – | 17.9 µM | – | 9.7 µM | – | 4.12 µM | – | 7.32 µM | – | 8.95 µM | – | 4.79 µM | – | 12.2 µM | – | 16.7 µM | – | 30.6 µM
C#CC#CC#CC#CC#CC#CC#CC#CCC1OC[C@H](COC(=O)O[C@@H](C(=O)O[C@H]2C[C@@]3(O)[C@@H](OC(=O)c4ccccc4)[C@@H]4[C@]5(OC(C)=O)CO[C@@H]5C[C@H](O)[C@@]4(C)C(=O)[C@H](OC(C)=O)C(=C2C)C3(C)C)[C@@H](NC(=O)c2ccccc2)c2ccccc2)O1 (some centres not stated) | 11.7 µM | > 33.3 µM | > 18.5 µM | > 33.3 µM | 0.255 µM | > 33.3 µM | 0.386 µM | 3.59 µM | 0.0921 µM | > 33.3 µM | 1.27 µM | > 33.3 µM | 0.648 µM | > 33.3 µM | 0.561 µM | > 33.3 µM | 1.14 µM | > 33.3 µM | 0.516 µM | > 33.3 µM
CC(C)(CCC(C)(C)c1ccccc1)c1ccccc1 | – | 45.7 µM | – | 37.9 µM | – | 61.2 µM | – | 52.7 µM | – | 32.8 µM | – | 31.5 µM | – | 29.9 µM | – | 75.9 µM | – | 33.7 µM | – | 36.6 µM
CC(C)c1ccc(O)c(=O)cc1 | 4.95 µM | > 100 µM | 3.12 µM | > 100 µM | 3.63 µM | > 53.1 µM and 14.6 µM | 16.3 µM | 40.6 µM | 5.08 µM | – | 13.4 µM | – | 3.4 µM | 24.5 µM and 24.4 µM | 3.54 µM | > 100 µM | 15.3 µM | > 71.4 µM | 21 µM | –
CCOC(=O)c1cnc2c(cnn2CC)c1NN=C(C)C | 32 µM | > 100 µM | 25.3 µM | > 100 µM | 59.6 µM | > 100 µM | > 100 µM | > 100 µM | 90.4 µM | > 100 µM | 45.1 µM | > 100 µM | 73.2 µM | > 100 µM | 55.1 µM | > 100 µM | 32.6 µM | > 100 µM | 29 µM | > 100 µM
O=C1C=C(Nc2nc(C(=O)O)cc(=O)[nH]2)c2ccccc2C1=O | – | > 100 µM | – | > 100 µM | – | > 100 µM | – | > 100 µM | – | > 100 µM | – | > 100 µM | – | > 100 µM | – | > 100 µM | – | > 100 µM | – | > 100 µM
CC12CCC(O)CC1CCC1C2CCC2(C)C(C3=CC(=O)OC3)CCC12 (configuration not stated) | > 100 µM | > 100 µM | 5.02 µM | 29.5 µM | > 100 µM | > 100 µM | > 100 µM | > 100 µM | > 100 µM | > 100 µM | 0.636 µM | 8.49 µM | 0.686 µM | 4.44 µM | 16.9 µM | > 100 µM | 14.2 µM | > 100 µM | 22.3 µM | > 100 µM
Nc1nc(Nc2ccc3c(c2)CCC(N2CCCC2)CC3)nn1-c1cc2c(nn1)-c1ccccc1CCC2 (configuration not stated) | 0.839 µM | 2.14 µM | 0.234 µM | 1.69 µM | 0.701 µM | 2.48 µM | 0.957 µM | 2.27 µM | 1.35 µM | 2.79 µM | 1.46 µM | 3.04 µM | 1.71 µM | 3.27 µM | 1.14 µM | 2.85 µM | 1.6 µM | 3.4 µM | 1.75 µM | 3.95 µM
COc1cccc2c1C(=O)c1c(O)c3c(c(O)c1C2=O)C[C@@](O)(/C(C)=N\O)C[C@@H]3OC1CC(N)C(O)C(C)O1 (some centres not stated) | – | > 100 µM | – | 7.31 µM | – | 7.72 µM | – | 6.78 µM | – | 9.97 µM | – | 7.17 µM | – | 1.73 µM | – | 11.8 µM | – | 8.93 µM | – | 11 µM
NCC(=O)CCC(=O)O | > 100 µM | > 100 µM | > 100 µM | > 100 µM | > 100 µM | > 100 µM | > 100 µM | > 100 µM | > 100 µM | > 100 µM | > 100 µM | > 100 µM | > 100 µM | > 100 µM | > 100 µM | > 100 µM | > 100 µM | > 100 µM | > 100 µM | > 100 µM
COc1cccc(C2C(C#N)=C(N)Oc3cc(OC)ccc32)c1 (configuration not stated) | 0.0366 µM | > 100 µM | 0.0822 µM | 25.2 µM | 0.0203 µM | > 100 µM | 0.0271 µM | > 100 µM | 0.0211 µM | > 72.4 µM | 0.0519 µM | 1.49 µM | < 0.0105 µM | 0.0556 µM | 0.048 µM | > 100 µM | 0.517 µM | > 89.6 µM | 0.0437 µM | 63.3 µM
COc1ccc(-c2nn(-c3cccc(NC(=O)Nc4cccc(C(F)(F)F)c4)c3)cc2-c2ccncc2)cc1Cl | 1.81 µM | > 100 µM | 0.229 µM | 3 µM | 1.92 µM | > 100 µM | 1.63 µM | 4.62 µM | 1.91 µM | > 100 µM | 2.18 µM | 19.8 µM | 1.6 µM | 6.07 µM | 1.7 µM | 10.4 µM | 3.85 µM | > 100 µM | 1.17 µM | 7.69 µM
